Like-named read-outs stand apart in the source and are kept apart here.
Assays:
[1] = Whole-blood pharmacokinetics of Compound 2a in live rats (second analysis); format: in vivo; conditions: 7.5 mg/kg Compound 2a
[2] = Another pharmacokinetic analysis of Compound 2a in live rats (whole blood and plasma; IV, IM, SC); format: in vivo; conditions: 7.5 mg/kg Compound 2a
[3] = parameters: species or system Harlan Sprague Dawley rats; conditions: rat, in vivo, 7.5 mg/kg
Procedure: Compound 2a is formulated at 8 mg/mL in 5% aqueous mannitol (as a tonicity modifier), at pH 8.0. The formulation is administered IV, SC, or IM to cannulated Harlan Sprague Dawley rats (3 rats/group) from Envigo RMS, Inc. (Indianapolis, Ind.). […] Whole blood (0.1 mL) is collected via a jugular vein catheter at 0, 0.033 (IV only), 0.083, 0.167, 0.33, 0.66, 1, 3, 6, and 9 hours. […] Samples are then placed on wet ice until centrifugation to remove precipitate. […] Samples are quantified based on standard curves prepared with each analyte in the precipitated whole blood matrix. […] Area Under the Curve (AUC) is calculated using the trapezoidal rule by SigmaPlot 12.5 software.

[4] = not given; remark: listed apart in the source
[5] = rat, in vivo; for % Bioavailability of dantrolene: 7.5 mg/kg
physchem = conditions: rat, plasma
[6] = cited from earlier work

SMILES: O=C1CN(/N=C/c2ccc(-c3ccc([N+](=O)[O-])cc3)o2)C(=O)N1COP(=O)([O-])[O-].[Na+].[Na+] [Compound 2a]
- % Bioavailability of dantrolene ([1]; IM): 95.3%
- % Bioavailability of dantrolene ([1]; IV): 100%
- % Bioavailability of dantrolene ([2]; plasma, IM): 56.7%
- % Bioavailability of dantrolene ([2]; plasma, IV): 100%
- % Bioavailability of dantrolene ([2]; plasma, SC): 49.7%
- % Bioavailability of dantrolene ([2]; whole blood, IM): 80.8%
- % Bioavailability of dantrolene ([2]; whole blood, IV): 100%
- % Bioavailability of dantrolene ([2]; whole blood, SC): 64.0%
- appearance of dantrolene in the blood after administration [3]: rapid appearance of dantrolene in the blood
- half-life of prodrug in rat plasma: 1.37 h
- conversion to dantrolene in phosphate-buffered saline [4]: no conversion was observed
- amount of 2a observed after administration [5]: only trace amounts
- % Bioavailability of dantrolene ([5]; im): 77.8%
- % Bioavailability of dantrolene ([5]; iv): 100%

SMILES: O=C(O)CCC(=O)OCc1ccc(NC(=O)OCN2C(=O)CN(/N=C/c3ccc(-c4ccc([N+](=O)[O-])cc4)o3)C2=O)cc1 [Compound 17b]
- half-life at 100 μg/mL (physchem): 7.45 h

SMILES: Cl.NCC(=O)OCN1C(=O)CN(/N=C/c2ccc(-c3ccc([N+](=O)[O-])cc3)o2)C1=O [Compound 22c]
- half-life of prodrug in rat plasma: 0.0533 h
- reconversion in phosphate-buffered saline [4]: 85%

SMILES: O=C1CN(/N=C/c2ccc(-c3ccc([N+](=O)[O-])cc3)o2)C(O)=N1 [Dantrolene, 1-{[5-(4-nitrophenyl)-2-furyl]methylideneamino}imidazolidine-2,4-dione]
- solubility in water [6]: very poorly soluble in water
